*1 amine or outer side, *2 acyl side, *3 side chain or, on linkers, in order; H or OH if unused. Where a SMILES comes first, the peptide text is derived from it. Bridges are numbered along the chain shown (N, C = ends). Roman numbers before positions name the chains, in order. [ ]: non-standard residue; d: D form. Actinocin(9to1) = Cc1c2oc3c(C)ccc(C(=O)[*:1])c3nc-2c(C(=O)[*:2])c(N)c1=O; NMeV = CN[C@H](C(=O)O)C(C)C; Sar = CNCC(=O)O
Key:
[1] = system: IL-15-induced PDGFRβ expression; assay: Inhibition assay: IL-15-induced PDGFRβ expression after inhibitor pretreatment, flow cytometry; type: cell-based, human; conditions: washed, IL-15 10 ng/ml 24 h; for inhibition of PDGFRβ expression: DMSO control
Procedure: FIGS. 2A-2I. […] (A-B) Primary NK cells were treated with IL-15 (10 ng/ml) for the indicated times. mRNA levels of PDGFRB at different time points (A) (n=3) or at 1 h (B) (n=10) were examined by qPCR. (C-D) Primary NK cells were pretreated with actinomycin D (ActD, 5., g/ml) (C) or cycloheximide (CHX, 20 μg/ml) (D) for 1 h, washed twice with RPMI-1640, and then treated with IL-15 (10 ng/ml) for 24 h. DMSO was used as a control. Expression levels of PDGFRβ were examined by flow cytometry (n=5). […] (E) Primary NK cells were pretreated with wortmannin (1 μM), afuresertib (10 μM), TPCA-1 (1 μM), rapamycin (10 μM), torin1 (10 μM), decernotinib (10 μM), C118-9 (10 μM), STAT5-IN-1 (10 μM), AZD6244 (10 μM), or CI-1040 (10 μM) for 1 h, washed twice with RPMI 1640, and then treated with IL-15 (10 ng/ml) for 24 h. DMSO was used as control. Data shown are % of inhibition (n=5). The mean value of the inhibitory rate is shown. […] (G-I) Binding of p65 to the PDGFRB promoter in IL-15-treated NK cells (G) or resting NK cells (H) as determined by ChIP-qPCR or PCR (I) (n=3). Data represent three independent experiments. Data shown are means SD. NS, not significant. *P<0.05, **P<0.01, ***P<0.001, and ****P<0.0001.
FIGS. 8A-8E. […] (A) Scheme for the three IL-15 signaling pathways and their inhibitors. (B) Representative dot plots of PDGFRβ expression in NK cells treated with specific inhibitors. (C) Binding sites for p65 in the promoter regions of PDGFRB and PDGF-D genes (predicted from http://jaspar.genereg.net). […] The cells were collected for an immunoblot using anti-phosphor (p)-p65, anti-p65, and anti-actin antibodies. The ratios of p-p65 to actin were calculated using ImageJ (n=3). Data shown represent the mean±SD. NS, not significant, **P<0.01, ****P<0.0001.
(§1) NK cells were cultured in RPMI 1640 with 10% heat-inactivated FBS (Gibco) at 37° C. in a 5% CO2 humidified incubator. For NK cell transduction, PDGFRB cDNA ORF clone (Cat: HG10514-G) was purchased from Sino Biological and cloned into pCDH-CMV-MCS-EF1-copGFP lentivirus vector (System Biosciences). To produce lentivirus, we transfected the lentiviral transfer vector DNA, together with psPAX2 packaging (Addgene) and pMD2.G envelope plasmid DNA (Addgene), into HEK293T cells; using a polyethyenimine (PEI) transfection protocol (Polysciences). Concentrated lentivirus was added to primary NK cells cultured in RPMI 1640 medium supplemented with 10% FCS and 10 jig/mL polybrene with 2,000×g centrifugation for 2 h. Cells were cultured for an additional 48 h. […] The cells were then collected for flow cytometry analysis. For the inhibition assay, NK cells were pretreated with the indicated inhibitors for 1 h, washed twice with RPMI 1640. and then treated with IL-15 for 24 h.
Cells were stained with the indicated cell-surface markers and/or fixed/permeabilized using a Fixation/Permeabilization Kit (eBioscience). For intracellular staining of IFN-γ and PDGF-D, 5 μg/ml Brefeldin A (BioLegend) was added for 4 h before cell harvest. Intracellular staining of Ki67 was performed by fixing and permeabilizing with the Foxp3/Transcription Factor Staining Kit (eBioscience). For CD107a staining, CD107a antibody was added into the culture for 4 h in the presence of Brefeldin A. Annexin V staining was performed using an FITC Annexin V Apoptosis Detection Kit according to the manufacturer's protocol (BD Biosciences). Flow cytometry analysis was performed on BD LSRFortessa X-20 (BD Biosciences). Data were analyzed using NovoExpress software (Agilent Technologies).

[2] = system: PDGFRβ expression in human NK cells; assay: Cytokine-induced PDGFRβ expression in purified human NK cells, flow cytometry; type: cell-based; conditions: cytokine 10 ng/ml, 24 h; IL-15 effect dose- and time-dependent
Text: Data shown are the percentages of PDGFRβ^+ NK cells among total NK cells (n=5). […] Bar=20 μm. […] Data represent three independent experiments. Data shown are means SD.
FIGS. 7A-7F. […] Data shown are representative histograms and mean fluorescence intensity (MFI) of PDGFRα. […] Expression levels of PDGFRβ were examined by flow cytometry (n=6). […] Data shown are the percentages of PDGFRβ^+ NK cells among total NK cells (n=5). […] Data shown are representative histograms with MFI of PDGFRβ expression. (F) Expression levels of PDGFRβ on NK cells from IL-15 transgenic (Tg) mice were determined by flow cytometry. Data shown are representative histograms. Data represent three independent experiments.
as §1
Cells were stained with the indicated cell-surface markers and/or fixed/permeabilized using a Fixation/Permeabilization Kit (eBioscience). For intracellular staining of IFN-γ and PDGF-D, 5 μg/ml Brefeldin A (BioLegend) was added for 4 h before cell harvest. Intracellular staining of Ki67 was performed by fixing and permeabilizing with the Foxp3/Transcription Factor Staining Kit (eBioscience).

[3] = inhibitor 10 μM pretreatment 1 h
[4] = inhibitor 1 μM pretreatment 1 h

Q: With Cn1cnc2c(F)c(Nc3ccc(Br)cc3Cl)c(C(=O)NOCCO)cc21 [AZD6244] as the compound, how does the “effect on IL-15-induced PDGFRβ expression” value [1, 3] read?
A: Its value is “either little inhibition or even promoted”.

Q: Which “inhibition of PDGFRβ expression” value [1, 3] does the source give for Cn1ncc(Cl)c1-c1cc(C(=O)N[C@H](CN)Cc2cccc(F)c2)sc1Cl [afuresertib] here?
A: The value was roughly 70%.

Q: Which “effect on IL-15-induced PDGFRβ expression” value [1, 3] does the source give for CCC(=O)N1CCN(c2ccc(-n3c(=O)ccc4cnc5ccc(-c6cnc7ccccc7c6)cc5c43)cc2C(F)(F)F)CC1 [torin1] here?
A: Its value is “dramatically and significantly blocked”.

Q: How did the “effect on IL-15-induced PDGFRβ expression” value [1, 3] turn out when O=C(NOCC1CC1)c1ccc(F)c(F)c1Nc1ccc(I)cc1Cl [CI-1040] was run?
A: Its value is “either little inhibition or even promoted”.

Q: With C[C@@H]1C[C@@H]([C@H](O)CC2CC(=O)NC(=O)C2)C(=O)[C@@H](C)C1 [cycloheximide] as the compound, how does the “effect on IL-15-induced PDGFRβ expression” value ([1]; CHX, 20 μg/ml pretreatment 1 h) read?
A: Its value is “completely inhibited”.

Q: Which “effect on IL-15-induced PDGFRβ expression” value [1, 3] does the source give for CC[C@@](C)(Nc1ccnc(-c2c[nH]c3ncccc23)n1)C(=O)NCC(F)(F)F [decemotinib, decernotinib] here?
A: Its value is “approximately one third”.

Q: With IL-18: recombinant human IL-18 (B001-5) as the compound, how does the PDGFRβ expression [2] read?
A: Its PDGFRβ expression is “ineffective”.

Q: For NC(=O)Nc1sc(-c2ccc(F)cc2)cc1C(N)=O [TPCA-1], which “effect on IL-15-stimulated PDGFRβ expression” value [1, 4] is on record?
A: Its value is “completely prevented”.

Q: For COC[C@H]1OC(=O)c2coc3c2[C@@]1(C)C1=C(C3=O)[C@@H]2CCC(=O)[C@@]2(C)C[C@H]1OC(C)=O [wortmannin], which “inhibition of PDGFRβ expression” value [1, 4] is on record?
A: The value was roughly 70%.

Q: Which “effect on IL-15-induced PDGFRβ expression” value ([1]; ActD pretreatment 1 h) does the source give for Cc1c2oc3c(C)ccc(C(=O)N[C@@H]4C(=O)N[C@H](C(C)C)C(=O)N5CCC[C@H]5C(=O)N(C)CC(=O)N(C)[C@@H](C(C)C)C(=O)O[C@@H]4C)c3nc-2c(C(=O)N[C@@H]2C(=O)N[C@H](C(C)C)C(=O)N3CCC[C@H]3C(=O)N(C)CC(=O)N(C)[C@@H](C(C)C)C(=O)O[C@@H]2C)c(N)c1=O [actinomycin D] (I: T[dV]P[Sar][NMeV] / II: T[dV]P[Sar][NMeV]; ester I:1-I:C, II:1-II:C; linker I:N-II:N via Actinocin(9to1)) here?
A: Its value is “no longer induced PDGFRβ expression”.

Q: O=C(N/N=C/c1coc2ccccc2c1=O)c1cccnc1 [STAT5-IN-1] was tested. Which “effect on IL-15-induced PDGFRβ expression” value [1, 3] did it give?
A: Its value is “either little inhibition or even promoted”.
